In PubChem BioAssay AID192 (DTP/NCI, 2004):
Where “and” joins values, the source holds several entries; their conditions need not be identical. Equal values may be shown once. Inconclusive results and toxic doses are left out. Numbered stars: 1 amine (or outer) side, 2 acyl side, 3 side chain; on linkers, the order of the positions; unused ones are H or OH. Bridge positions count the residues as written; N and C are the ends. Square brackets hold non-standard residues; d marks the D form. Peptide text beside a SMILES is read from it. I, II: the chains in the order shown. Actinocin(1to9) = Cc1c2oc3c(C)ccc(C(=O)[*:2])c3nc-2c(C(=O)[*:1])c(N)c1=O; NMeV = CN[CH](C(=O)O)C(C)C; Aze = O=C(O)[CH]1CCN1; Sar = CNCC(=O)O

Test system: BDF1 mice, B16 melanoma ip, median survival T/C
Test: NCI In Vivo Anticancer Drug Screen. Data for tumor model B16 Melanoma (intraperitoneal) in B6D2F1 (BDF1) mice
Details: endpoint: median survival time, higher = longer survival
Outline: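 Antitumor activity is assessed in mice bearing a transplanted tumor, with survival or tumor size compared against vehicle-dosed controls and expressed as T/C.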

[1] = dose: 50.0 mg/kg/injection, schedule: Q01DX009 (ip), vehicle: saline with Tween-80
[2] = dose: 25.0 mg/kg/injection, schedule: Q01DX009 (ip), vehicle: Klucel (hydroxypropylcellulose) (HPC)
[3] = dose: 50.0 mg/kg/injection, schedule: Q01DX009 (ip), vehicle: Klucel (hydroxypropylcellulose) (HPC)
[4] = dose: 100.0 mg/kg/injection, schedule: Q04DX003 (ip), vehicle: saline with Tween-80
[5] = dose: 200.0 mg/kg/injection, schedule: Q04DX003 (ip), vehicle: saline with Tween-80
[6] = dose: 400.0 mg/kg/injection, schedule: Q04DX003 (ip), vehicle: saline with Tween-80
[7] = dose: 12.5 mg/kg/injection, schedule: Q01DX009 (ip), vehicle: Klucel (hydroxypropylcellulose) (HPC)

## Cc1c2oc3c(C)ccc(C(=O)NC4C(=O)NC(C(C)C)C(=O)N5CCCC5C(=O)N(C)CC(=O)N(C)C(C(C)C)C(=O)OC4C)c3nc-2c(C(=O)NC2C(=O)NC(C(C)C)C(=O)N3CCC3C(=O)N(C)CC(=O)N(C)C(C(C)C)C(=O)OC2C)c(N)c1=O (configuration not stated) (I: TV[Aze][Sar][NMeV] / II: TVP[Sar][NMeV]; ester I:1-I:C, II:1-II:C; linker I:N-II:N via Actinocin(1to9); configuration not given here)
dose: 0.23 mg/kg/injection, schedule: Q01DX009 (ip), vehicle: saline + alcohol
  T/C: 172 % of control
dose: 0.3 mg/kg/injection, schedule: Q04DX003 (ip), vehicle: saline + alcohol
  T/C: 163 % of control
dose: 19.4 micrograms/kg/injection, schedule: Q01DX009 (ip), vehicle: saline + alcohol
  T/C: 107 % of control
dose: 37.0 micrograms/kg/injection, schedule: Q01DX009 (ip), vehicle: saline + alcohol
  T/C: 182 % of control
dose: 75.0 micrograms/kg/injection, schedule: Q01DX009 (ip), vehicle: saline + alcohol
  T/C: 156 % of control and 190 % of control
dose: 100.0 micrograms/kg/injection, schedule: Q01DX009 (ip), vehicle: saline + alcohol
  T/C: 151 % of control
dose: 150.0 micrograms/kg/injection, schedule: Q01DX009 (ip), vehicle: saline + alcohol
  T/C: 159 % of control
dose: 250.0 micrograms/kg/injection, schedule: Q01DX009 (ip), vehicle: saline + alcohol
  T/C: 153 % of control

## C1=CC2CC3(OCCO3)C2C1 (configuration not stated)
[1]
  T/C: 88 % of control
dose: 100.0 mg/kg/injection, schedule: Q01DX009 (ip), vehicle: saline with Tween-80
  T/C: 106 % of control
dose: 200.0 mg/kg/injection, schedule: Q01DX009 (ip), vehicle: saline with Tween-80
  T/C: 93 % of control

## CC(C)(O)C1OCC(C2CCC3(C)C4=CCC5C(C)(C)C(O)CCC5(C)C4CCC23C)CC1O (configuration not stated)
dose: 2.5 mg/kg/injection, schedule: Q01DX009 (ip), vehicle: Klucel (hydroxypropylcellulose) (HPC)
  T/C: 102 % of control
dose: 5.0 mg/kg/injection, schedule: Q01DX009 (ip), vehicle: Klucel (hydroxypropylcellulose) (HPC)
  T/C: 98 % of control
dose: 10.0 mg/kg/injection, schedule: Q01DX009 (ip), vehicle: Klucel (hydroxypropylcellulose) (HPC)
  T/C: 89 % of control

## CCc1nc(N)nc(N)c1-c1ccc(Cl)cc1
dose: 4.0 mg/kg/injection, schedule: Q01DX009 (ip), vehicle: Klucel (hydroxypropylcellulose) (HPC)
  T/C: 93 % of control
dose: 4.0 mg/kg/injection, schedule: Q01DX009 (oral), vehicle: Klucel (hydroxypropylcellulose) (HPC)
  T/C: 102 % of control
dose: 4.0 mg/kg/injection, schedule: Q01DX009 (sc), vehicle: Klucel (hydroxypropylcellulose) (HPC)
  T/C: 90 % of control
dose: 4.0 mg/kg/injection, schedule: Q06HX004 (ip), vehicle: Klucel (hydroxypropylcellulose) (HPC)
  T/C: 107 % of control
dose: 4.0 mg/kg/injection, schedule: Q06HX008 (ip), vehicle: Klucel (hydroxypropylcellulose) (HPC)
  T/C: 91 % of control
dose: 8.0 mg/kg/injection, schedule: Q01DX009 (ip), vehicle: Klucel (hydroxypropylcellulose) (HPC)
  T/C: 95 % of control
dose: 8.0 mg/kg/injection, schedule: Q01DX009 (oral), vehicle: Klucel (hydroxypropylcellulose) (HPC)
  T/C: 100 % of control
dose: 8.0 mg/kg/injection, schedule: Q01DX009 (sc), vehicle: Klucel (hydroxypropylcellulose) (HPC)
  T/C: 92 % of control
dose: 8.0 mg/kg/injection, schedule: Q06HX004 (ip), vehicle: Klucel (hydroxypropylcellulose) (HPC)
  T/C: 90 % of control
dose: 8.0 mg/kg/injection, schedule: Q06HX008 (ip), vehicle: Klucel (hydroxypropylcellulose) (HPC)
  T/C: 104 % of control
dose: 8.0 mg/kg/injection, schedule: Q06HX012 (ip), vehicle: Klucel (hydroxypropylcellulose) (HPC)
  T/C: 100 % of control
dose: 16.0 mg/kg/injection, schedule: Q01DX001 (ip), vehicle: Klucel (hydroxypropylcellulose) (HPC)
  T/C: 96 % of control
dose: 16.0 mg/kg/injection, schedule: Q01DX001 (oral), vehicle: Klucel (hydroxypropylcellulose) (HPC)
  T/C: 106 % of control
dose: 16.0 mg/kg/injection, schedule: Q01DX001 (sc), vehicle: Klucel (hydroxypropylcellulose) (HPC)
  T/C: 113 % of control
dose: 16.0 mg/kg/injection, schedule: Q01DX009 (ip), vehicle: Klucel (hydroxypropylcellulose) (HPC)
  T/C: 113 % of control
dose: 16.0 mg/kg/injection, schedule: Q01DX009 (oral), vehicle: Klucel (hydroxypropylcellulose) (HPC)
  T/C: 113 % of control
dose: 16.0 mg/kg/injection, schedule: Q01DX009 (sc), vehicle: Klucel (hydroxypropylcellulose) (HPC)
  T/C: 98 % of control
dose: 16.0 mg/kg/injection, schedule: Q04DX003 (ip), vehicle: Klucel (hydroxypropylcellulose) (HPC)
  T/C: 86 % of control
dose: 16.0 mg/kg/injection, schedule: Q06HX004 (ip), vehicle: Klucel (hydroxypropylcellulose) (HPC)
  T/C: 98 % of control
dose: 16.0 mg/kg/injection, schedule: Q06HX008 (ip), vehicle: Klucel (hydroxypropylcellulose) (HPC)
  T/C: 108 % of control
dose: 16.0 mg/kg/injection, schedule: Q06HX012 (ip), vehicle: Klucel (hydroxypropylcellulose) (HPC)
  T/C: 87 % of control
dose: 16.0 mg/kg/injection, schedule: Q08DX002 (ip), vehicle: Klucel (hydroxypropylcellulose) (HPC)
  T/C: 87 % of control
dose: 32.0 mg/kg/injection, schedule: Q01DX001 (ip), vehicle: Klucel (hydroxypropylcellulose) (HPC)
  T/C: 96 % of control
dose: 32.0 mg/kg/injection, schedule: Q01DX001 (oral), vehicle: Klucel (hydroxypropylcellulose) (HPC)
  T/C: 104 % of control
dose: 32.0 mg/kg/injection, schedule: Q01DX001 (sc), vehicle: Klucel (hydroxypropylcellulose) (HPC)
  T/C: 117 % of control
dose: 32.0 mg/kg/injection, schedule: Q01DX009 (ip), vehicle: Klucel (hydroxypropylcellulose) (HPC)
  T/C: 102 % of control
dose: 32.0 mg/kg/injection, schedule: Q01DX009 (oral), vehicle: Klucel (hydroxypropylcellulose) (HPC)
  T/C: 120 % of control
dose: 32.0 mg/kg/injection, schedule: Q01DX009 (sc), vehicle: Klucel (hydroxypropylcellulose) (HPC)
  T/C: 103 % of control
dose: 32.0 mg/kg/injection, schedule: Q04DX003 (ip), vehicle: Klucel (hydroxypropylcellulose) (HPC)
  T/C: 100 % of control
dose: 32.0 mg/kg/injection, schedule: Q06HX008 (ip), vehicle: Klucel (hydroxypropylcellulose) (HPC)
  T/C: 100 % of control
dose: 32.0 mg/kg/injection, schedule: Q08DX002 (ip), vehicle: Klucel (hydroxypropylcellulose) (HPC)
  T/C: 102 % of control
dose: 64.0 mg/kg/injection, schedule: Q01DX001 (sc), vehicle: Klucel (hydroxypropylcellulose) (HPC)
  T/C: 117 % of control
dose: 64.0 mg/kg/injection, schedule: Q01DX009 (sc), vehicle: Klucel (hydroxypropylcellulose) (HPC)
  T/C: 101 % of control
dose: 64.0 mg/kg/injection, schedule: Q04DX003 (ip), vehicle: Klucel (hydroxypropylcellulose) (HPC)
  T/C: 100 % of control
dose: 64.0 mg/kg/injection, schedule: Q08DX002 (ip), vehicle: Klucel (hydroxypropylcellulose) (HPC)
  T/C: 100 % of control
dose: 128.0 mg/kg/injection, schedule: Q01DX001 (sc), vehicle: Klucel (hydroxypropylcellulose) (HPC)
  T/C: 106 % of control

## COc1ccc(NC(=O)Nc2cc(Cl)ccc2OC)cc1
[2]
  T/C: 92 % of control
[3]
  T/C: 92 % of control

## CN(CCO)C1=C(N2CC2)C(=O)C(N(C)CCO)=C(N2CC2)C1=O
dose: 100.0 micrograms/kg/injection, schedule: Q01DX009 (ip), vehicle: saline
  T/C: 111 % of control
dose: 200.0 micrograms/kg/injection, schedule: Q01DX009 (ip), vehicle: saline
  T/C: 118 % of control

## CC(=O)c1ccc2ccccc2c1O
dose: 12.5 mg/kg/injection, schedule: Q01DX009 (ip), vehicle: saline with Tween-80
  T/C: 107 % of control
dose: 25.0 mg/kg/injection, schedule: Q01DX009 (ip), vehicle: saline with Tween-80
  T/C: 93 % of control
[1]
  T/C: 106 % of control
[4]
  T/C: 100 % of control
[5]
  T/C: 110 % of control
[6]
  T/C: 100 % of control

## CC(C)(O)C(C)(O)c1cccc(Cl)c1 (configuration not stated)
[7]
  T/C: 107 % of control
[2]
  T/C: 102 % of control
[3]
  T/C: 88 % of control

## CNc1ccc(C(=O)O)cc1OC
[4]
  T/C: 95 % of control
[5]
  T/C: 91 % of control
[6]
  T/C: 90 % of control

## CCCCCCC(C)NCC(O)COc1cccc(C)c1 (configuration not stated)
dose: 3.12 mg/kg/injection, schedule: Q01DX009 (ip), vehicle: Klucel (hydroxypropylcellulose) (HPC)
  T/C: 90 % of control
dose: 6.25 mg/kg/injection, schedule: Q01DX009 (ip), vehicle: Klucel (hydroxypropylcellulose) (HPC)
  T/C: 94 % of control
[7]
  T/C: 89 % of control

## c1ccc(OP(Oc2ccccc2)c2ccccc2)cc1
dose: 50.0 mg/kg/injection, schedule: Q01DX009 (ip), vehicle: acetone
  T/C: 113 % of control
dose: 100.0 mg/kg/injection, schedule: Q01DX009 (ip), vehicle: acetone
  T/C: 100 % of control
dose: 200.0 mg/kg/injection, schedule: Q01DX009 (ip), vehicle: acetone
  T/C: 100 % of control
